# Laboratory results as given in patent US20210227854A1, “USE OF D-RIBOSE TO ENHANCE ADAPTATION TO PHYSICAL STRESS” (Bioenergy Life Science, Inc., priority 2014, published 2021).
# Experiments:
# [1] = Serum creatine kinase (CK) around three days of high-intensity exercise; format: in vivo, human; conditions: for CK (u): Day 1 to Day 3, 10 g/day, mean ± SD; for Creatine kinase levels, average increase: text b38, p=0.03
# Protocol: A high-intensity exercise protocol was designed as a double-blind, crossover study to assess the influence of D-Ribose adaptation to physical stress. Specifically, D-Ribose and a control (Dextrose) were administered on separate subjects at a dosage of ten grams per day (10 g/day). A variety of physiological parameters were measured in the subjects administered D-Ribose (DR) supplementation (i.e., the DR subjects) versus the subjects administered Dextrose (DEX) supplementation (i.e., the DEX subjects). To test D-ribose for adaptation, the twenty-six (26) adult subjects were further divided into two subgroups based on their fitness level (i.e., peak oxygen uptake (VO2 max) results. The first subgroup comprised subjects with higher VO2 max results (i.e., the “Fit Subgroup”) and the second subgroup comprised subjects with lower VO2 max results (i.e., the “Unfit Subgroup”). The Unfit Subgroup consisted of six (6) females and seven (7) males. The average age of the Unfit Subgroup was 27.7±3.4 years and the average peak VO2 of the Unfit Subgroup was 39.9±4.1 mL/kg/min. The Fit Subgroup consisted of four (4) females and nine (9) males. The average age of the Fit Subgroup was 27.6±3.5 year and the average peak VO2 of the Fit Subgroup was 52.2±4.3 mL/kg/min. The protocol of the double-blind crossover study involved an initial baseline assessment, followed by two separate day assessments after consuming either a DR or DEX supplement. Each exercise session entailed measurements of creatine kinase (CK), blood urea nitrogen (BUN), glucose, heart rate (HR), rate of perceived exertion (RPE), and power output (PO) measurements. Physiologic parameters were measured and hydration was provided to the subjects during the exercise session. The same protocol for testing and hydration protocol was followed for both DR subjects and DEX subjects. Blood samples were drawn from each subject via a venipuncture technique at the following time periods: • Ten (10) minutes before commencement of exercise; • Twenty (20) minutes after the commencement of and during exercise; • Forty (40) minutes after the commencement of and during exercise; • Sixty (60) minutes after the commencement of and during exercise; and • Twenty-four (24) hours after the conclusion of exercise (twenty-five (25) hours after the commencement of exercise). Blood glucose was measured at all of the above time points except at twenty-four (24) hours post-exercise. Creatine kinase and BUN levels were measured at the pre-exercise (−10 min.) point during the three (3) days of exercise and twenty-four (24) hours post-exercise following the third (last) exercise session. Heart rate was recorded using a Polar HR monitor. Blood glucose levels were measured using a Bayer glucose monitor. Blood lactate levels were measured by an AccuSport Lactate Analyzer. Creatine kinase and BUN were measured utilizing an Abaxis Piccolo analyzer. Power data from the time trial performance test was assessed with the Sports Medicine Industries (SMI) software package.
# [2] = Heart rate (HR) during exercise sessions; format: in vivo, human; conditions: for HR (bpm): 10 g/day, mean ± SD
# Protocol: A high-intensity exercise protocol was designed as a double-blind, crossover study to assess the influence of D-Ribose adaptation to physical stress. Specifically, D-Ribose and a control (Dextrose) were administered on separate subjects at a dosage of ten grams per day (10 g/day). A variety of physiological parameters were measured in the subjects administered D-Ribose (DR) supplementation (i.e., the DR subjects) versus the subjects administered Dextrose (DEX) supplementation (i.e., the DEX subjects). To test D-ribose for adaptation, the twenty-six (26) adult subjects were further divided into two subgroups based on their fitness level (i.e., peak oxygen uptake (VO2 max) results. The first subgroup comprised subjects with higher VO2 max results (i.e., the “Fit Subgroup”) and the second subgroup comprised subjects with lower VO2 max results (i.e., the “Unfit Subgroup”). The Unfit Subgroup consisted of six (6) females and seven (7) males. The average age of the Unfit Subgroup was 27.7±3.4 years and the average peak VO2 of the Unfit Subgroup was 39.9±4.1 mL/kg/min. The Fit Subgroup consisted of four (4) females and nine (9) males. The average age of the Fit Subgroup was 27.6±3.5 year and the average peak VO2 of the Fit Subgroup was 52.2±4.3 mL/kg/min. The protocol of the double-blind crossover study involved an initial baseline assessment, followed by two separate day assessments after consuming either a DR or DEX supplement. Each exercise session entailed measurements of creatine kinase (CK), blood urea nitrogen (BUN), glucose, heart rate (HR), rate of perceived exertion (RPE), and power output (PO) measurements. Each exercise session consisted of six (6) ten-minute intervals of exercise on a cycle ergometer. During each ten-minute interval, the subject cycled for eight (8) minutes at a workload of approximately 60% of the subject's VO2 max, then immediately cycled for an additional two (2) minutes at a workload of approximately 80% VO2 max (approximately one workload above the subject's calculated lactate threshold). Cadence and power output were monitored at ten-minute intervals during each exercise session. At the end of the sixty-minute exercise session, each subject completed a two-minute performance task (time trial). This performance task required the subject to produce as much power as possible during the two-minute interval. Peak power, average power, and percent decline were assessed during this two-minute task trial. Workload for performance task was set at five percent (5%) of the subject's body weight. Heart rate was recorded using a Polar HR monitor. Blood glucose levels were measured using a Bayer glucose monitor. Blood lactate levels were measured by an AccuSport Lactate Analyzer. Creatine kinase and BUN were measured utilizing an Abaxis Piccolo analyzer. Power data from the time trial performance test was assessed with the Sports Medicine Industries (SMI) software package.
SMILES,CK (u) ([1]; Fit Subgroup),CK (u) ([1]; Unfit Subgroup),"Creatine kinase levels, average increase ([1]; Unfit Subgroup)",Average HR ([2]; Fit Subgroup),HR (bpm) ([2]; Fit Subgroup),Average HR ([2]; Unfit Subgroup),HR (bpm) ([2]; Unfit Subgroup),"Change in CK levels, DR versus DEX ([1]; Fit Subgroup)"
"O=C[C@H](O)[C@@H](O)[C@H](O)[C@H](O)CO [DEX, Dextrose, reference compound]",12.1 ± 270 u,124.5 ± 126.5 u,121.4±110.2 U,153±12 bpm,152.4 ± 11.7 bpm,153±17 bpm,152.0 ± 19.5 bpm,
"O=C[C@H](O)[C@H](O)[C@H](O)CO [DR, D-Ribose]",40.0 ± 348.1 u,10.3 ± 79.3 u,37.1±85.2 U,153±12 bpm,152.6 ± 11.9 bpm,152±20 bpm,151.5 ± 19.4 bpm,No differences
